# US4221782A (priority 1978, dated 1980)
# Read-outs that look alike come from different tables or passages of the source.
# Assays:
# [1] = system: stickleback; test: Exploratory test with azidotrimethylsilicane; type: in vivo; details: relative to other azides
# [2] = system: threespine stickleback; design: species or system Gasterosteus aculeatus; details: in vivo
# [3] = system: torrent sculpin; test: Toxicity to torrent sculpin, 96-hour bioassays; type: in vivo, Cottus rotheus
# [4] = system: rats; details: cited from earlier work
# [5] = system: cutthroat trout; test: Toxicity to cutthroat trout, 96-hour bioassays; type: in vivo, Salmo clarki
# [6] = system: stickleback
# Description: For field applications the concentration of NaN3 or N3 -- would vary with water quality--mainly with regard to dissolved solid and hydrogen ion concentrations. […] For the treatment of rivers and shorelines of lakes the concentrations of azide that would be used would be those that would kill stickleback in 12 to 24 hours.
# [7] = system: sockeye; details: in vivo
# [8] = system: rats; test: Lowest published lethal oral dose in rats (1974 Toxic Substances List); type: in vivo, rat; details: water treated at 1 mg/l of azide
# Description: It would be impossible for a bird or mammal to drink enough water when treated at 1 mg/l of azide for the azide to harm the animal. To drink a lethal dose, an animal would have to drink 46 times its weight in water. Nevertheless safety precautions should be taken when handling the chemical.
# [9] = system: speckled dace; test: Toxicity to speckled dace, 96-hour bioassays; type: in vivo, Rhinichthys cataractae
# [10] = system: sockeye; test: Example 5: survival/recovery of sockeye after exposure to sodium azide, 20-day bioassays; type: in vivo, Oncorhynchus nerka; details: exposed for 16 hours or less
# Source text: (§1) Stickleback subjected to the same test conditions experienced almost 100% mortality.
# [11] = as above; type: in vivo, Oncorhynchus nerka; details: sockeye salmon, in vivo; exposed for 16 hours or less; end of 20-day bioassays
# Source text: as §1
# [12] = system: bridgelip sucker; test: Toxicity to bridgelip sucker, 96-hour bioassays; type: in vivo, Catastomus columbianus
# [13] = system: redside shiner; test: Toxicity to redside shiner, 96-hour bioassays; type: in vivo, Richardsonius balteatus
# [14] = system: freshwater races of rainbow trout; test: Toxicity to rainbow trout, 96-hour bioassays; type: in vivo, Salmo gairdneri
# [15] = system: chinook salmon; test: Example 4: LC0 of chinook, artesian well water, 96-hour bioassays; type: in vivo, O. tschawytscha; details: for LC0 of chinook: artesian well water, 96-hour
# Source text: The desirable fishes tested in bioassays included the sockeye salmon (Oncorhynchus nerka), chinook salmon, (O. tschawytscha) and the steelhead, a sea-run variety of rainbow trout (Salmo gairdneri).
# [16] = system: stickleback; remark: listed apart in the source
# Source text: For water with different chemistry and for application of different concentrations of the azide the delay time of application of deactivator could vary.
# [17] = system: sockeye salmon
# Description: Fingerling sockeye salmon in artesian water were exposed to a concentration of 5 mg/l of potassium azide for 24 hours at a temperature of 15 degrees Celsius.
# Ten sockeye (length range, 55-93 mm) were assigned to each of four aquaria (load, 2.7 g/l) and concentrations of chemicals were added as indicated in Table 8. The time of mortality was noted.
# [18] = system: threespine stickleback and sockeye salmon; details: increases in temperature
# Description: Delineation bioassays determined primarily the LC50 and LC100 of stickleback and the LC0 and LC50 of salmonids.
# Stickleback (mean length, 44 mm) and sockeye (mean length, 74 mm) in artesian well water were treated with various concentrations of potassium azide in laboratory facilities for 96 hours at 5, 10 and 15 degrees Celsius to determine approximate selectivity and safety indices.
# [19] = up to 5.0 mg/l in artesian well water
compound,measurement,setting,value
C[Si](C)(C)N=[N+]=[N-] [azidotrimethylsilicane],biological activity/potency and selectivity of the azide radical in organic compounds,[1],equally biologically active or potent and equally selective
[Ca+2].[I-].[I-] [calcium iodide],azide neutralizing effectiveness,[2],neutralized azide more effectively than calcium chloride
same,toxicity of azide in standing water and duration of its potency,[2],can be controlled
[N-]=[N+]=[N-] [sodium azide],toxicity,[3]; up to 1.5 mg/l in river water,not toxic
same,toxicity,[3]; [19],not toxic
same,"LDL0, oral (lowest published lethal dose)",[4],46 mg for 2 kg of rat
same,toxicity,[5]; up to 1.5 mg/l in river water,not toxic
same,toxicity,[5]; [19],not toxic
same,toxicity to fish in river water as opposed to artesian water,[6]; allowing for the 0.8 differential between sodium and potassium azide,about 5 times
same,LC100 of stickleback,"[6]; river water, 96-hour bioassays, 15 degrees Celsius",0.34 mg/L
same,mean times of death at about equal equivalents,[7],about equal mean times of death
same,amount of water to drink for a lethal dose,[8],46 times its weight
same,toxicity,[9]; up to 1.5 mg/l in river water,not toxic
same,toxicity,[9]; [19],not toxic
same,recovery of sockeye from ill effects,[10],complete recovered from any ill effects
same,survival at 480 h,[11],100%
same,toxicity,[12]; up to 1.5 mg/l in river water,not toxic
same,toxicity,[12]; [19],not toxic
same,toxicity,[13]; up to 1.5 mg/l in river water,not toxic
same,toxicity,[13]; [19],not toxic
same,toxicity,[14]; up to 1.5 mg/l in river water,not toxic
same,toxicity,[14]; [19],not toxic
same,LC0 of chinook salmon compared with sockeye and steelhead,[15]; allowing for the 0.8 differential,substantially greater than that of sockeye and steelhead
same,LC0 of chinook,[15]; 5° C.,10.0 mg/L
same,LC0 of chinook,[15]; 10° C.,8.0 mg/L
same,LC0 of chinook,[15]; 15° C.,8.0 mg/L
[Cl][Sn][Cl] [stannous chloride],toxicity of azide in standing water and duration of its potency,[2],can be controlled
calcium chloride,toxicity of azide in standing water and duration of its potency,[2],can be controlled
same,delay in application of calcium chloride necessary for maximizing the kill of stickleback,"[16]; 5 mg/l potassium azide, artesian water",2 h
same,death time for stickleback,[16]; calcium chloride and potassium azide added about simultaneously,about doubled
same,Survival time,[17]; 3.5 mg/l calcium chloride (1 equivalent weight) after 24 h at 5 mg/l potassium azide,90 h
same,Survival time,[17]; 7.0 mg/l calcium chloride (2 equivalent weights) after 24 h at 5 mg/l potassium azide,112 h
same,Survival time,[17]; 14.0 mg/l calcium chloride (4 equivalent weights) after 24 h at 5 mg/l potassium azide,148 h
same,effect on mortality of sockeye exposed to 5 mg/l potassium azide for 24 hours,"[17]; 1, 2, 4, and 8 equivalent weights",delayed the mortality
same,survival of all sockeye in the azide,[17]; 8 equivalents of calcium chloride,complete survival of all sockeye
same,Survival time,[17]; […] calcium chloride (8 equivalent weights) after 24 h at 5 mg/l potassium azide,Did not die
potassium azide,effect of temperature on toxicity,[18],marked increase in the toxicity
